Data published in the supplement of paper PMC11208160.

Experiment: recombinant UMI read abundance after kanamycin selection (control-corrected) (log10(CPM+1)); higher = more efficient recombination; extreme values may be limits of the assay; sequences stand for … in AGTGCAGAGAAAATCGGCCAGTTTTCTCTGCCTGCAGTCCGCATGCCGTGGGACCCCTTGGGTTCTAACCTGTTGCCTAGATTTATGCAGCGGACTGCCTTTCTCCCAAAGTGATAAACCGG…AGGTTGGTTTCACT; site = the 11-nt donor
Method in brief: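 Values, expressed as log10(CPM+1), derive from recombinant UMI counts converted to CPM, averaged across replicates and scaled by control-derived factors. Plating was with IPTG (0.07 mM) plus kanamycin or unselected, two replicates each. The screen pooled donor and donor-binding-loop pairs for the IS621 bridge recombinase in Escherichia coli.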
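Further: IS621 bridge recombinase in Escherichia coli cells against a fixed T5 target plasmid.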

| Sequence | recombinant UMI read abundance (log10) |
| --- | --- |
| CGGACATCATGGACCGGTTTTCCCGGTAATCCGTATTTGCT (site CAGACATCTAG) | 1.53 |
| CGGACATCATGGACCGGTTTTCCCGGTAATCCGTATTTGCT (site CCGACATCTAG) | 0.954 |
| CGGACATCATGGACCGGTTTTCCCGGTAATCCGTATTTGCT (site CGAACATCTAG) | 1.51 |
| CGGACATCATGGACCGGTTTTCCCGGTAATCCGTATTTGCT (site CGCACATCTAG) | 0 |
| CGGACATCATGGACCGGTTTTCCCGGTAATCCGTATTTGCT (site CGGAAATCTAG) | 0 |
| CGGACATCATGGACCGGTTTTCCCGGTAATCCGTATTTGCT (site CGGACAACTAG) | 0.552 |
| CGGACATCATGGACCGGTTTTCCCGGTAATCCGTATTTGCT (site CGGACACCTAG) | 0 |
| CGGACATCATGGACCGGTTTTCCCGGTAATCCGTATTTGCT (site CGGACAGCTAG) | 0.00346 |
| CGGACATCATGGACCGGTTTTCCCGGTAATCCGTATTTGCT (site CGGACATCTAA) | 0 |
| CGGACATCATGGACCGGTTTTCCCGGTAATCCGTATTTGCT (site CGGACATCTAC) | 0 |
| CGGACATCATGGACCGGTTTTCCCGGTAATCCGTATTTGCT (site CGGACATCTAG) | 2.42 |
| CGGACATCATGGACCGGTTTTCCCGGTAATCCGTATTTGCT (site CGGACATCTAT) | 1.21 |
| CGGACATCATGGACCGGTTTTCCCGGTAATCCGTATTTGCT (site CGGACATCTCG) | 0.0134 |
| CGGACATCATGGACCGGTTTTCCCGGTAATCCGTATTTGCT (site CGGACATCTGG) | 0.0128 |
| CGGACATCATGGACCGGTTTTCCCGGTAATCCGTATTTGCT (site CGGACATCTTG) | 0.756 |
| CGGACATCATGGACCGGTTTTCCCGGTAATCCGTATTTGCT (site CGGACCTCTAG) | 0.303 |
| CGGACATCATGGACCGGTTTTCCCGGTAATCCGTATTTGCT (site CGGACGTCTAG) | 0 |
| CGGACATCATGGACCGGTTTTCCCGGTAATCCGTATTTGCT (site CGGACTTCTAG) | 0.255 |
| CGGACATCATGGACCGGTTTTCCCGGTAATCCGTATTTGCT (site CGGAGATCTAG) | 0 |

| Sequence | recombinant UMI read abundance (log10) |
| --- | --- |
| CGGACATCATGGACCGGTTTTCCCGGTAATCCGTATTTGCT (site CGGATATCTAG) | 1.9 |
| CGGACATCATGGACCGGTTTTCCCGGTAATCCGTATTTGCT (site CGGCCATCTAG) | 0.0134 |
| CGGACATCATGGACCGGTTTTCCCGGTAATCCGTATTTGCT (site CGGGCATCTAG) | 0 |
| CGGACATCATGGACCGGTTTTCCCGGTAATCCGTATTTGCT (site CGGTCATCTAG) | 0.746 |
| CGGACATCATGGACCGGTTTTCCCGGTAATCCGTATTTGCT (site CGTACATCTAG) | 1.54 |
| CGGACATCATGGACCGGTTTTCCCGGTAATCCGTATTTGCT (site CTGACATCTAG) | 1.34 |
| CGGACATCATGGACCGGTTTTCCCGGTAATCCGTATTTGCT (site GGGACATCTAG) | 0 |
| CGGACATCATGGACCGGTTTTCCCGGTAATCCGTATTTGCT (site TGGACATCTAG) | 0.773 |
| CGGACGACATGGACCGGTTTTCCCGGTAATCCGTATTTGGT (site CGGACGACTAC) | 1.25 |
| CGGACTGCATGGACCGGTTTTCCCGGTAATCCGTATTTGTT (site CGGAATCCTAA) | 0 |
| CGGACTGCATGGACCGGTTTTCCCGGTAATCCGTATTTGTT (site CGGACTGCTAA) | 2.12 |
| CGGACTTCATGGACCGGTTTTCCCGGTAATCCGTATTTGCT (site CGGACATCTAG) | 0.905 |
| CGGACTTCATGGACCGGTTTTCCCGGTAATCCGTATTTGCT (site CGGACCTCTAG) | 1.61 |
| CGGACTTCATGGACCGGTTTTCCCGGTAATCCGTATTTGCT (site CGGACGTCTAG) | 0 |
| CGGACTTCATGGACCGGTTTTCCCGGTAATCCGTATTTGCT (site CGGACTTCTAG) | 2.17 |
| CGGAGTACATGGACCGGTTTTCCCGGTAATCCGTATTTGTT (site CGGAATCCTAA) | 0 |
| CGGAGTACATGGACCGGTTTTCCCGGTAATCCGTATTTGTT (site CGGAGTACTAA) | 2.14 |
| CGGAGTCCATGGACCGGTTTTCCCGGTAATCCGTATTTGAT (site CGGAATCCTAA) | 0.0131 |
